Source: patent US7351728B2, “Oxazolyl-aryloxyacetic acid derivatives and their use as PPAR agonists” (Eli Lilly and Company, priority 2003, dated 2008)

Assays:
[1] = target: T1, huPPARα (Homo sapiens, UniProt Q07869); assay: DNA-dependent binding (ABCD binding), SPA, tritium-labeled PPARα agonist radioligand; conditions: displacement of tritium-labeled PPARα agonist
T1 sequence (Q07869 1-468): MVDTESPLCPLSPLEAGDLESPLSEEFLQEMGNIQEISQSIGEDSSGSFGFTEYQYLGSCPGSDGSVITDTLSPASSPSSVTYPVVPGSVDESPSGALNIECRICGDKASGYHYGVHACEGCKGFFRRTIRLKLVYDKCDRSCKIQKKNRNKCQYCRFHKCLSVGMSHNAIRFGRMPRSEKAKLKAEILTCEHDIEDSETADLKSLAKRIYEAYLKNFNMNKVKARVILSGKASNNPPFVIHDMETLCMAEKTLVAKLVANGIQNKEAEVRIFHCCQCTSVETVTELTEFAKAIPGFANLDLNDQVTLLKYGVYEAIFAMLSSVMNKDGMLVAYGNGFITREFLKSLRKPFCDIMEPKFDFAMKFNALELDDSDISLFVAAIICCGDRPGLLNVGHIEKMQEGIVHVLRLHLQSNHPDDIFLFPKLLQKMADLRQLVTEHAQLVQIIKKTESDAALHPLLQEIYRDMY
T1 sequence (P19793 1-462 partner): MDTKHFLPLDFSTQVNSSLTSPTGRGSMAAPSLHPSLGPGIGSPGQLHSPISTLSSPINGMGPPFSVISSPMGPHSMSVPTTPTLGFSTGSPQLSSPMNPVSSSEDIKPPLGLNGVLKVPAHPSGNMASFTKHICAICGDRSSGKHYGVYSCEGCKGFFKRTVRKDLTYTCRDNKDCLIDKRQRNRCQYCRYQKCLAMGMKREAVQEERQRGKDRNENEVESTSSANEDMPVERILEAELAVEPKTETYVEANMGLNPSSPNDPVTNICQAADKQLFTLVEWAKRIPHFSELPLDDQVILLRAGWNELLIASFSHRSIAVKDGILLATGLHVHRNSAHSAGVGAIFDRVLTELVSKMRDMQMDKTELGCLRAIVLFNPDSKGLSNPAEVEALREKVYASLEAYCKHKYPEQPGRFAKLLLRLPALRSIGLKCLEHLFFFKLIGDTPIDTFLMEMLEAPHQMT
Procedure: (§1) DNA-dependent binding (ABCD binding) was carried out using SPA technology with PPAR receptors. Tritium-labeled PPARα and PPARγ agonists were used as radioligands for generating displacement curves and IC50 values with compounds of the invention. Cotransfection assays were carried out in CV-1 cells. The reporter plasmid contained an acylCoA oxidase (AOX) PPRE and TK promoter upstream of the luciferase reporter cDNA. Appropriate PPARs and RXRα were constitutively expressed using plasmids containing the CMV promoter. […] In order to eliminate such interference, a GAL4 chimeric system was used in which the DNA binding domain of the transfected PPAR was replaced by that of GAL4, and the GAL4 response element was utilized in place of the AOX PPRE. Cotransfection efficacy was determined relative to PPARα agonist and PPARγ agonist reference molecules. Efficacies were determined by computer fit to a concentration-response curve, or in some cases at a single high concentration of agonist (10 μM). For binding or cotransfection studies with receptors other than PPARs, similar assays were carried out using appropriate ligands, receptors, reporter constructs, etc., for that particular receptor.
(§2) These studies were carried out to evaluate the ability of compounds of the invention to bind to and/or activate various nuclear transcription factors, particularly huPPARα (“hu” indicates “human”) and huPPARγ. These studies provide in vitro data concerning efficacy and selectivity of compounds of the invention. Furthermore, binding and cotransfection data for compounds of the invention were compared with corresponding data for marketed compounds that act on either huPPARα or huPPARγ.
(§3) Binding and cotransfection data for representative compounds of the invention are compared with corresponding data for reference compounds in Table II.

[2] = tested on: huPPARα; assay: Cotransfection assay in CV-1 cells, luciferase reporter (GAL4 chimeric system); assay type: cell-based, human; conditions: cotransfection efficacy relative to PPARα agonist reference molecule
Procedure: as §1, §2, §3

| Structure (SMILES) | IC50 [1] [nM] | huPPARα CTF Eff. (%) [2] [%] |
| --- | --- | --- |
| Cc1oc(-c2ccccc2)nc1CCOc1ccc(OC(C)(C)C(=O)O)cc1 [Example 1, 2-Methyl-2-{4-[2-(5-methyl-2-phenyloxazol-4-yl)ethoxy]phenoxy}propionic acid] | 1680 | 72 |
| Cc1oc(-c2cccc(CCc3ccccc3)c2)nc1CCOc1ccc(OC(C)(C)C(=O)O)cc1 [Example 12A, 2-Methyl-2-(4-{2-[5-methyl-2-(3-phenethylphenyl)oxazol-4-yl]ethoxy}phenoxy)-propionic acid] | 233 | 74 |
| Cc1oc(-c2ccc(OC3CCCCC3)cc2)nc1CCOc1ccc(OC(C)(C)C(=O)O)cc1 [Example 21, 2-(4-{2-[2-(4-Cyclohexyloxy-phenyl)-5-methyl-oxazol-4-yl]-ethoxy}-phenoxy)-2-methyl-propionic acid] | 401 | 78 |
| Cc1cc(OCCc2nc(-c3ccccc3)oc2C)ccc1OC(C)(C)C(=O)O [Example 24, 2-Methyl-2-{2-methyl-4-[2-(5-methyl-2-phenyloxazol-4-yl)ethoxy]phenoxy}propionic acid] | 624 | 73 |
| CCCc1cc(OCCc2nc(-c3ccccc3)oc2C)ccc1OCC(=O)O [Example 26, {4-[2-(5-methyl-2-phenyl-oxazol-4-yl)ethoxy]-2-propylphenoxy}acetic acid] | 3280 | 35 |
| CCCc1cc(OC(C)(C)C(=O)O)ccc1OCCc1nc(-c2ccccc2)oc1C [Example 27A, 2-Methyl-2-{4-[2-(5-methyl-2-phenyloxazol-4-yl)ethoxy]-3-propylphenoxy}propionic acid] | 113 | 95 |
| CCc1cc(OCCc2nc(-c3ccccc3)oc2C)ccc1OC(C)(C)C(=O)O [Example 30A, 2-{2-Ethyl-4-[2-(5-methyl-2-phenyloxazol-4-yl)ethoxy]phenoxy}2-methylpropionic acid] | 189 | 80 |
| Cc1oc(-c2ccccc2)nc1CCOc1ccc(OC(C)(C)C(=O)O)c(CC(C)C)c1 [Example 30C, 2-{2-Isobutyl-4-[2-(5-methyl-2-phenyloxazol-4-yl)ethoxy]phenoxy}-2-methylpropionic acid] | 259 | 67 |
| Cc1oc(-c2ccccc2)nc1CCOc1ccc(OC(C)(C)C(=O)O)c2ccccc12 [Example 37, 2-Methyl-2-{4-[2-(5-methyl-2-phenyl-oxazol-4-yl)-ethoxy]-naphthalen-1-yloxy}-propionic acid] | 294 | 91 |
| Cc1oc(-c2ccccc2)nc1CCOc1ccc(OC(C)(C)C(=O)O)c2c1CCCC2 [Example 38, 2-Methyl-2-{4-[2-(5-methyl-2-phenyl-oxazol-4-yl)-ethoxy]-5,6,7,8-tetrahydro-naphthalen-1-yloxy}-propionic acid] | 254 | 80 |

Now those with a lower IC50 [1], led by results:

| IC50 [1] [nM] | Structure (SMILES) | huPPARα CTF Eff. (%) [2] [%] |
| --- | --- | --- |
| 75 | Cc1oc(-c2cccc(Br)c2)nc1CCOc1ccc(OC(C)(C)C(=O)O)cc1 [Example 9A, 2-(4-{2-[2-(3-Bromophenyl)-5-methyloxazol-4-yl]ethoxy}phenoxy)-2-methylpropionic acid] | 82 |
| 31 | CCc1cccc(-c2nc(CCOc3ccc(OC(C)(C)C(=O)O)cc3)c(C)o2)c1 [Example 12, 2-(4-{2-[2-(3-Ethylphenyl)-5-methyloxazol-4-yl]ethoxy}phenoxy)-2-methylpropionic acid] | 68 |
| 25 | CCc1ccc(-c2nc(CCOc3ccc(OC(C)(C)C(=O)O)cc3)c(C)o2)cc1 [Example 13, 2-(4-{2-[2-(4-Ethylphenyl)-5-methyloxazol-4-yl]ethoxy}phenoxy)-2-methylpropionic acid] | 73 |
| 79 | CCCc1cc(OCCc2nc(-c3ccccc3)oc2C)ccc1OC(C)(C)C(=O)O [Example 26A, 2-Methyl-2-{4-[2-(5-methyl-2-phenyloxazol-4-yl)ethoxy]-2-propylphenoxy}propionic acid] | 75 |
| 82 | Cc1oc(-c2ccccc2)nc1CCOc1ccc(OC(C)(C)C(=O)O)c(CCc2ccccc2)c1 [Example 30J, 2-Methyl-2-{4-[2-(5-methyl-2-phenyloxazol-4-yl)ethoxy]-2-phenethylphenoxy}propionic acid] | 90 |
| 30 | CCCCc1cc(OC(C)(C)C(=O)O)ccc1OCCc1nc(-c2ccccc2)oc1C [Example 31F, 2-{3-Butyl-4-[2-(5-methyl-2-phenyloxazol-4-yl)ethoxy]phenoxy}-2-methylpropionic acid] | 70 |
| 50 | Cc1oc(-c2ccccc2)nc1CCOc1ccc(OC(C)(C)C(=O)O)c(Cc2ccccc2)c1 [Example 32, 2-{2-Benzyl-4-[2-(5-methyl-2-phenyloxazol-4-yl)ethoxy]phenoxy}-2-methylpropionic acid] | 82 |
